Assay [1] concerns the target T1, PAF receptor (human platelet membrane preparation) (Homo sapiens, UniProt P25105).
T1 construct: human platelet membrane preparation; tissue Lifesource, Inc. (Glenview, Ill.); host or cells: human packed platelets (washed, freeze-thaw broken, membrane pellet)
The assay can be described thus: Assay A: Human Platelet Receptor Binding ([3H]PAF). The following applies: for pIC50: 0.75 nM [3H]PAF, 30 minutes at 24° C. As for the experimental part:
Assay A: Human Platelet Receptor Binding
Compounds of the invention were evaluated for their ability to inhibit specific binding of [^3 H]PAF to human platelet membrane preparation. Human packed platelets were obtained from Lifesource, Inc. (Glenview, Ill.) and washed 3 times with 10 mM Trizma pH 7.0, 2 mM EDTA (dipotassium salt), 150 mM KCl and then once with 10 mM Trizma 7.4, 20 mM CaCl2. The platelets were broken by freezing in a dry ice-ethanol bath, followed by thawing in 24° C. water baths. The preparation was centrifuged (40,000 x g, 20 minutes, 4'C) and the pellet resuspended in 10 mM Trizma 7.4, 20 mM CaCl2, 5 mg/ml human albumin. Protein concentration in the platelet membrane preparation was determined by the Lowry method [0. H. Lowry et al, J. Biol. Chem., 193 265-275 (1951)]. Aliquots of the membrane preparation were stored at -70° C. Each preparation was characterized for PAF receptor number and dissociation constant (Kd). In binding assays 5 μl of test compound, solubilzed in DMSO, was added to polypropylene tubes along with 0.75 nM [^3 H]PAF and 200 mcl [0.075 nM] of membranes and 95 μl 10 mM Trizma 7.4, 20 mM CaCL2, 5 mg/ml human albumin. Tubes were incubated for 30 minutes at 24° C. The incubation was terminated by adding 4 ml of ice-cold 10 mM Trizma pH 7.4, 20 mM CaCl2 and 20 mg/ml BSA prior to vacuum filtration using Whatman GF/C filters. Filters were prepared and counted for a scintillation counter. All DPM values were corrected for background and isotope decay. Triplicate determinations for single doses were averaged. The amount of non-specific binding was subtracted from all dose averages, giving an amount of specific binding in all cases. The IC50 values for compounds of the invention determined by the Allfit program using percent displacement data. Allfit is a "basic" computer program for simultaneous curve fitting of a family of sigmoidal dose-response curves using the four parameter logistic equation.

In another assay the test system is PAF-induced aggregation. The following applies: human platelet-rich plasma; cited from earlier work.
For another assay, the system named is thromboxane synthetase. The note with it: cited from earlier work.
Assay [2] has as its system arachidonic acid-induced platelet aggregation. The note with it: cited from earlier work.
Another assay has as its system bronchoconstriction. The following applies: cited from earlier work.
The subject of another assay is human platelets. The assay can be described thus: Assay B: Human Platelet Aggregation Inhibition (PAF-induced, platelet-rich plasma). It counts as cell-based. The note with it: 37°. The protocol:
Assay B: Human Platelet Aggregation Inhibition
A compound of the invention was evaluated for ability to inhibit PAF-induced aggregation of human platelets in a human-platelet-rich plasma. Venous blood was collected from donors who fasted for 8 hours and were instructed not to use antiinflammatory drugs for 2 weeks prior to blood draw. Blood was collected into syringes containing 0.1 ml of 3.8% [w/v] citrate and centrifuged in polypropylene tubes at 150xg for 20 minutes at room temperature. The platelet rich plasma [PRP] was collected and let sit for 20 minutes at room temperature. Platelet activating factor [PAF] was diluted in 0.9% NaCl with 0.25% bovine serum albumin. Silicon treated cuvettes with stir bars were placed in the 37° heating block of the platelet aggregometer [Bio/Data Corporation, Platelet Aggregation Profiler, Model PAP-4]. PRP and test compound were added to cuvettes and aggregation monitored for 10-15 seconds at 37° with stirring. PAF was added and aggregation monitored for an additional 3 minutes. Peak aggregation was considered the peak of the first aggregation wave usually 45-60 seconds after PAF addition. Inhibition of aggregation was determined by the following: 1- [(% aggregation in the presence of compound).div.(% maximal aggregation)]. A log/logit transformation was used to determine half maximal inhibitory concentration of a test compound [IC50 ].

Here are results for ten molecules from patent US5262426A, “N,N'-cycloalkyl/alkyl carboxamide 4H-imidazo-[4,5-b]pyridine compounds as PAF antagonists” (G. D. Searle & Co., priority 1993, dated 1993).

pIC50: −log10 of the molar value.

T1 sequence (P25105 whole entry): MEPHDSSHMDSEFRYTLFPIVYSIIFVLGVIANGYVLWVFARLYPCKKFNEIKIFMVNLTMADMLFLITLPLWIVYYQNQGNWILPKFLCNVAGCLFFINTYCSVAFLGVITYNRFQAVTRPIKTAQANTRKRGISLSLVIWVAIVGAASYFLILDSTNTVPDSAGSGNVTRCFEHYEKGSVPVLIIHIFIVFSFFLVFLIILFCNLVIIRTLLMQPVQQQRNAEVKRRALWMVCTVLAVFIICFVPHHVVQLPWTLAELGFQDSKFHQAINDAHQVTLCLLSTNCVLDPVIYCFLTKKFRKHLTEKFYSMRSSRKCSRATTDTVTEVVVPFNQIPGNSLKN

In assay [1], `COc1cc(C(=O)N(C2CCCC2)C2CCCC2)ccc1Cn1cccc2ncnc1-2` [Example 1, N,N-dicyclopentyl-4-[(4H-imidazo[4,5-b]pyridin-4-yl)methyl]-3-methoxybenzamide] had a pIC50 of 5.98.
`CC(C)N(C(=O)c1ccc(Cn2cccc3ncnc2-3)cc1)C1CCCCC1` [Example 9, N-cyclohexyl-4-[(4H-imidazo[4,5-b]pyridin-4 yl)methyl]-N-(1-methylethyl)benzamide] gave a negative logarithm of the IC50 (pIC50) in assay [1] of 6.07.
For `COc1cc(Cn2cccc3ncnc2-3)ccc1C(=O)N(C(C)C)C1CCCCC1` [Example 2, N-cyclohexyl-4-[(4H-imidazo[4,5-b]pyridin-4-yl)methyl]-2-methoxy-N-(1-methylethyl)benzamide], the inhibition at 10 µM in assay [1] (at 10 μM) turned out to be 40%.
Take `COc1cc(C(=O)N(C(C)C)C2CCCCC2)ccc1Cn1cccc2ncnc1-2` [Example 3, N-cyclohexyl-4-[(4H-imidazo[4,5-b]pyridin-4-yl)methyl]-3-methoxy-N-(1-methylethyl)benzamide]: in assay [1], the pIC50 is 6.19.
Still for that read-out and setting: then `COc1cc(C(=O)N(C(C)C)C2CCCCC2)ccc1Cn1cccc2nc(CO)nc1-2` [Example 6, N-cyclohexyl-4-[[2-(hydroxymethyl)-4H-imidazo[4,5-b]pyridin-4-yl]methyl]-3 methoxy-N-(1-methylethyl)benzamide], with 6.34.
Turning to `CN(C(=O)c1ccc(Cn2cnc3cnccc32)cc1)C1CCCCC1` [N-cyclohexyl-N-methyl-4-(1H-imidazo[4,5-c]pyridin-1-yl-methyl)benzamide], the “inhibition of PAF-induced aggregation” value in the assay with PAF-induced aggregation is listed as “inhibitor of PAF-induced aggregation”.
As to `COc1cc(C(=O)N(C(C)C)C2CCCCC2)ccc1Cn1cccc2nc(C)nc1-2` [Example 5, N-cyclohexyl-3-methoxy-N-(1-methylethyl)-4-[(2-methyl-4H-imidazo[4,5-b]pyridin-4 yl]methyl]benzamide], in assay [1], the pIC50 is 6.49.
On the same count and under the same terms, as for `COc1cc(C(=O)N(C(C)C)C2CCCCC2)ccc1Cn1cccc2nc(-c3ccccn3)nc1-2` [Example 7, N-cyclohexyl-3-methoxy-N-(1-methylethyl)-4-[[2-(2-pyridinyl)-4H-imidazo[4,5-b]pyridin-4-yl]methyl]benzamide], the figure is 6.14.
As to `C(=Cc1ccccc1)Cn1ccnc1` [1-(3-phenyl-2-propenyl)1H-imidazole], in the assay on thromboxane synthetase, the inhibiting thromboxane synthetase entry was “effective in inhibiting”. Further, the “inhibiting arachidonic acid-induced platelet aggregation” value in assay [2] was “effective in inhibiting”. Further, the inhibiting bronchoconstriction result with bronchoconstriction is recorded as “effective in inhibiting”.
As for `COc1cc(Cn2cccc3ncnc2-3)ccc1C(=O)N(C1CCCC1)C1CC(C)CC(C)C1` (stereo not shown) [Example 4, N-cyclopentyl-N-(3,5-dimethylcyclohexyl)-4-[(4H-imidazo[4,5-b]pyridin-4-yl)methyl]-2-methoxybenzamide], the values for the pIC50 (in assay [1]; with human platelets) were 6.86 and 7.24, respectively.
